Assay results published in US8791163B2 (McGill University, priority 2006, dated 2014).
Values joined by “and” are separate entries in the source; they are usually repeats but may differ in a detail not shown here. Equal entries are not always repeated. “Also recorded” adds a separate entry of the source. Where two headings read alike, the source gives them in different places.

Key:
[1] = target: T1, cloned human MT1 receptors (Homo sapiens, UniProt P48039); assay: 2-[125I]iodomelatonin competition binding, human MT1 in NIH3T3 cells; conditions: calculated from IC50 by Cheng-Prusoff, mean of at least three determinations
T1 construct: expressed in transfected cells
Procedure: (§1) Membranes were incubated for 90 min at 37° C. in binding buffer (Tris/HCl 50 mM, pH 7.4). The final membrane concentration was 5-10 μg of protein per tube. […] The pKi values are the mean of at least three independent determinations performed in duplicate. To define the functional activity of the compounds of Formula (I) at the MT1 and MT2 receptor subtypes, [^35S]GTPγS binding assays in NIH3T3 cells expressing human-cloned MT1 or MT2 receptors were performed. The amount of bound [^35S]GTPγS is proportional to the level of analogue-induced G-protein activation and is related to the intrinsic activity of the compound (i.e. a compound of Formula (I)) under study. […] Nonspecific binding was assessed using non-radiolabeled GTPγS (10 μM). […] Basal stimulation is the amount of [^35S]GTPγS specifically bound in the absence of the compounds of Formula (I) and was taken as 100%. […] All of the measurements were performed in triplicate.

[2] = target: T2, cloned human MT2 receptors (Homo sapiens, UniProt P49286); assay: 2-[125I]iodomelatonin competition binding, human MT2 in NIH3T3 cells; conditions: human MT2 in NIH3T3 cells; calculated from IC50 by Cheng-Prusoff; mean of at least three determinations
T2 construct: expressed in transfected cells
T2 sequence (P49286 1-362): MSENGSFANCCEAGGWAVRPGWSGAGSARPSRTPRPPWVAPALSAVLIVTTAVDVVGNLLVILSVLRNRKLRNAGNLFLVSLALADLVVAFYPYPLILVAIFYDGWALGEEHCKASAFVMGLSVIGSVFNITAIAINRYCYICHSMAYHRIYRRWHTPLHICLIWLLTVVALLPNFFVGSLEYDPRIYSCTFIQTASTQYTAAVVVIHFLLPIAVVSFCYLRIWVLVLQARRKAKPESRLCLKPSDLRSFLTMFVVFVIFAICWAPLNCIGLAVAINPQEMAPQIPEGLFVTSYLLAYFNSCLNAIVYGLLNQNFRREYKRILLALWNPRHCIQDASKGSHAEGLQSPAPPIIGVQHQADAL
Procedure: as §1

[3] = target: T1, cloned human MT1 receptors; assay: [35S]GTPγS binding assay, NIH3T3 cells expressing human MT1; format: biochemical; conditions: for MT1 IAr ± SEM (relative intrinsic activity): maximal net effect relative to MLT; on MT1 Activity: key: A = agonist; PA = partial agonist; ANT = antagonist; IA = Inverse agonist
Procedure: as §1

[4] = target: T2, cloned human MT2 receptors; assay: [35S]GTPγS binding assay, NIH3T3 cells expressing human MT2; format: biochemical; conditions: for MT2 IAr ± SEM (relative intrinsic activity): maximal net effect relative to MLT; on MT2 Activity: key: A = agonist; PA = partial agonist; ANT = antagonist; IA = Inverse agonist
Procedure: as §1

[5] = tested on: Adult Sprague Dawley rats; assay: Elevated plus maze (EPM); format: in vivo, rat; conditions: diazepam 2 mg/kg, injected 45 min before test
Procedure: The maze is comprised of two open arms (50×10 cm) and two closed arms (50×10×40 cm) that extend from a common central platform (10×10 cm). The apparatus, made of wood (painted black) was elevated to a height of 80 cm above floor level. The closed arms are located opposite one another. Behavior is recorded over a period of 5 min using a video camera positioned directly above the maze and rated by an observer blind to drug conditions. The major measure of interest is the amount of time spent in the open arms. As an index of general activity and distribution, the total number of entries into both open and closed arms was also recorded. […] In order to increase the sensitivity of this test to anxiolytic activity, tests are carried out under normal room illumination (25 W bulb).

Sprague Dawley rats = assay: Novelty-Induced Suppressed Feeding (NSF) Test; format: in vivo, rat; conditions: diazepam 2 mg/kg s.c., 45 min before the test
Procedure: The NSF test is used to assess the anti-anxiety effect of a drug [Bodnoff et al. Psychopharmacology 1988, 95(3), 298-307]. Sprague Dawley rats were used in the NSF test. The testing apparatus comprises a brightly lit open area covered with lab chow pellets. Forty-eight hours prior to behavioral testing, all food was removed from the apparatus. Animals treated with compound 5b (40 or 80 mg/kg) were injected 60 min before the test, whereas animals treated with vehicle (DMSO/saline 7:3) or diazepam were injected 45 min before the test. The drugs were administered subcutaneously and the experiments were conducted after 5:30 PM. The latency to feed, defined as chewing the food as opposed to merely sniffing or playing with a pellet, was then recorded (Table 6). The experiment was terminated for those animals that had not begun eating within a period of 360 seconds, which animals were assigned a latency score of 360 seconds. All analyses were conducted using Sigma Stats and SPSS software. The results are expressed as the mean±SEM per n (number) animals tested (*, p<0.01, ANOVA or t test).

[6] = tested on: Male rats (Sprague-Dawley); assay: EEG and EMG sleep recordings (slow wave sleep, REM sleep, wakefulness); format: in vivo, rat
Procedure: Male rats (Sprague-Dawley) weighing approximately 300-340 g were used for surgical implantation of electroencephalogram (EEG) and electromyogram (EMG) electrodes. Following the recovery from surgery, the animals were housed separately in cages and kept on a 12-hour light/dark cycle (12 h light-12 h dark, 7:30 AM lights on) at a controlled temperature (21° C.). The rats had free access to food and water ad libitum.
Rats were anaesthetized using equithesin (425 mg chloral hydrate, 1 ml 100% ethanol, 98 mg pentobarbitone, 213 mg magnesium sulphate and 3 ml propylene glycol, sterile water per 10 ml of solution; 1 ml per 300 g body weight i.p.) and placed in a stereotactic frame. The skull was exposed and carefully cleaned. Two stainless-steel epidural electrodes were implanted for the registration of the EEG under stereotactic control, through 1.5 mm burr holes at the coordinates corresponding to the right parietal-occipital cortex (AP=−2 mm L=3 mm; AP=−7 mm L=3 mm) and the left parietal-occipital cortex (AP=−4.5 mm L=3 mm) according to the atlas by Paxinos (The Rat Brain in Stereotaxic Coordinates, Academic Press, 1995). Three stainless steel wire electrodes, isolated except for the last few millimeters, were implanted into the neck muscles (two bilaterally and one in the middle) for the monitoring of the EMG. The EEG epidural electrodes and the EMG wires were fitted to a six-pin female connector. For fixation to the skull, the wires and connector were covered with dental acrylic (Coltene/Whaledent Inc. USA). The animals were allowed to recover from the surgery for at least 3-4 days.
Twenty-four hours (24 h) following the surgery, the rats were placed in the recording room from noon to 9:00 PM, for 3-4 days. The rats were connected to the 6-flat cable (3M), in a freely-moving manner, from 6:00 PM to 9:00 PM for habituation. No recordings were performed at this time, however, the tolerance to the cable and the sleep behavior were observed.
Following 3-4 days of habituation, the rats received the injection of a vehicle (DMSO/saline 7:3, 0.2 ml s.c.) at 6:00 PM and the recording was carried out until 9:00 PM. On the following day the rats received diazepam (2 mg/kg, s.c.) at 6:00 PM and the recording was performed until 9:00 PM. Four days following the injection of diazepam, the rat received 5b (40 mg/kg s.c.) and the recording also performed from 6 to 9 PM.
For each experiment, a rat was placed individually in the cage and monitoring of the signal was carried out via the attachment of a non-restraining 6-wire flat cable and a female connector, which was connected to an impedance transformer with a gain of 10, located above the cage. The EEG signal was amplified (resulting in a total gain of 10,000) and locally filtered. The EMG signal was amplified as the EEG, (EEG: low filter 1.0 Hz; high 1 KHz, EMG: low filter 30.0 Hz; high 3 KHz). The power spectra analysis was performed for identification of the sleep stages. The behavior of the animals was observed during the experiment (eye movements, ambulation, rearing etc.).
The three classical vigilance-sleep states described in the rat were discriminated on the basis of the cortical EEG and neck EMG, following the classification by Ruigt et al. (Electroencephalography and clinical Neurophysiology, 1989, 73: 52-63). Wakefulness was identified by a low-amplitude and desynchronized EEG with sustained EMG activity. Slow wave sleep (SWS, includes Quiet sleep, deep sleep and Pre-REM) was clearly distinguished by high-voltage delta waves (2-4 Hz) and spindles associated with a […] EMG activity. Pre-REM sleep was characterized by a clear theta rhythm in the EEG, frequently alternating with short lasting, high voltage spindles. REM sleep was characterized by a low-amplitude EEG with a pronounced theta rhythm (5.5-8.5 Hz), a complete loss of muscle tone, and a low voltage EMG. […]

[7] = diazepam 2 mg/kg s.c., Mean ± SEM of 11 rats
[8] = diazepam 2 mg/kg s.c., Mean ± SEM of 11 rats, listed as diazepam
[9] = diazepam 2 mg/kg s.c., individual rats 1-11

T1 sequence (P48039 whole entry): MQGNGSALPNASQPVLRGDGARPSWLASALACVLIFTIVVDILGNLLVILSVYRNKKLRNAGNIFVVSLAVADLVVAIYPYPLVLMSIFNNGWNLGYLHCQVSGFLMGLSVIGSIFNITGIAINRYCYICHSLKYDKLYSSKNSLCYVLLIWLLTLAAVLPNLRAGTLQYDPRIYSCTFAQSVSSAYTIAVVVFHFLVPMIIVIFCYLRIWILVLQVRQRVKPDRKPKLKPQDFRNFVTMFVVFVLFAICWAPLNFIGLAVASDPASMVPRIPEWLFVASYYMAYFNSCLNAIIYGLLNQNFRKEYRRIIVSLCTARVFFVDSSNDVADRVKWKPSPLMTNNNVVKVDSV

CC(=O)NCCN(c1ccccc1)c1ccccc1 [5a, N-[2-(diphenylamino)ethyl]acetamide]
MT1 pKi [1]: 6.90 ± 0.04
MT2 pKi [2]: 8.41 ± 0.13
MT1 Activity [3]: ANT
MT1 IAr ± SEM (relative intrinsic activity) [3]: 0.10 ± 0.03
MT2 IAr ± SEM (relative intrinsic activity) [4]: 0.57 ± 0.04
melting point: 44 to 45 °C

COc1ccc(N(CCNC(C)=O)c2ccccc2)cc1 [5e, N-{-2-[(4-Methoxyphenyl)-phenylamino]ethyl}acetamide]
MT1 pKi [1]: 6.11 ± 0.12
MT2 pKi [2]: 7.56 ± 0.10
MT1 Activity [3]: ANT
MT1 IAr ± SEM (relative intrinsic activity) [3]: 0.02 ± 0.01
MT2 Activity [4]: ANT
MT2 IAr ± SEM (relative intrinsic activity) [4]: 0.06 ± 0.03
melting point: 102 to 104 °C

COc1cccc(N(C)CCNC(C)=O)c1 [5j, N-{2-[(3-Methoxyphenyl)-methylamino]ethyl}acetamide]
MT1 pKi [1]: 9.09 ± 0.10
MT2 pKi [2]: 9.19 ± 0.01
MT1 IAr ± SEM (relative intrinsic activity) [3]: 0.95 ± 0.08
MT2 IAr ± SEM (relative intrinsic activity) [4]: 1.06 ± 0.05
melting point: 69 to 71 °C

CN1C(=O)CN=C(c2ccccc2)c2cc(Cl)ccc21 [Diazepam]
Head Dips [5]: 11.37 ± 2.12 (P = 0.01)
Percentage of time in Closed Arms [5]: 67.75 ± 5.87 (P = 0.007) %
Percentage of time in Open Arms [5]: 32.25 ± 5.9 (P = 0.006) %
Total time duration in the Closed Arms [5]: 178.71 ± 18.16 (P = 0.006) sec/closed arm
Total time duration in the Open Arms [5]: 122.0 ± 18.0 (P = 0.008) sec/open arm
Head Dips ([5]; listed as diazepam): increase in the number of head dips
Latency (sec) to feed (Sprague Dawley rats): 36.10 ± 15.32 (P ≦ 0.001)* sec
Latency (sec) to feed (Sprague Dawley rats; listed as diazepam): decreased latency to feed
Slow Wave Sleep Duration [6]: 58.45 min and 89.15 min and 84 min and 105.18 min and 99.03 min and 103.14 min and 92.36 min and 114.55 min and 94.85 min and 88.22 min and 83.9 min
Slow Wave Sleep Latency [6]: 18.02 min and 3.98 min and 8.25 min and 2.86 min and 6.93 min and 3.06 min and 18.42 min and 13.59 min and 22.5 min and 6.51 min and 26.36 min
Wakefulness Duration [6]: 69.58 min and 73.27 min and 68.04 min and 83.4 min and 62.00 min and 82.58 min and 85.76 min and 66.32 min and 115.52 min and 71.04 min and 80.79 min
REM Sleep Duration [6, 7]: 6.5 ± 0.7 min
REM Sleep Latency [6, 7]: 74.5 ± 5.2 min
REM Sleep Mean of a Single Episode [6, 7]: 1.43 ± 0.11 min
REM Sleep Number (episodes) [6, 7]: 4.6 ± 0.5 episodes
Slow Wave Sleep Duration [6, 7]: 92.0 ± 4.4 min
Slow Wave Sleep Mean of a Single Episode [6, 7]: 5.4 ± 0.38 min
Slow Wave Sleep Number (episodes) [6, 7]: 18.0 ± 1.6 episodes
Wakefulness Duration [6, 7]: 78.2 ± 4.43 min
Wakefulness Mean of a Single Episode [6, 7]: 2.7 ± 0.84 min
Wakefulness Number (episodes) [6, 7]: 17.0 ± 1.52 episodes
REM Sleep Duration (min) [6, 8]: significantly decreases
REM Sleep Latency (min) [6, 8]: significantly increases
REM Sleep Number (episodes) [6, 8]: significantly decreases
Slow Wave Sleep Duration (min) [6, 8]: increase the duration of the SWS; also recorded: significantly increases
Slow Wave Sleep Latency (min) [6, 8]: significantly decreases
Slow Wave Sleep Mean of a Single Episode (min) [6, 8]: significantly increase
Slow Wave Sleep Number (episodes) [6, 8]: no influence
Wakefulness Duration (min) [6, 8]: significantly decreases
Wakefulness Number (episodes) [6, 8]: no influence
REM Sleep Duration [6, 9]: 6.04 min and 5.45 min and 12.03 min and 5.18 min and 7.71 min and 8.81 min and 4.23 min and 5.86 min and 2.55 min and 8.52 min and 5.62 min
REM Sleep Latency [6, 9]: 102.43 min and 56.83 min and 56.59 min and 96.4 min and 61.69 min and 93.4 min and 72.26 min and 86.41 min and 58.92 min and 73.3 min and 61.33 min
REM Sleep Mean of a Single Episode [6, 9]: 1.51 min and 1.816 min and 1.718 min and 1.295 min and 1.542 min and 0.978 min and 1.05 min and 1.465 min and 0.85 min and 2.13 min and 1.405 min
REM Sleep Number (episodes) [6, 9]: 4 episodes (6×) and 3 episodes (2×) and 7 episodes and 5 episodes and 9 episodes
Slow Wave Sleep Mean of a Single Episode [6, 9]: 6.49 min and 7.42 min and 3.11 min and 5.53 min and 4.3 min and 5.15 min and 4.39 min and 4.98 min and 6.77 min and 5.18 min and 6.45 min
Slow Wave Sleep Number (episodes) [6, 9]: 9 episodes and 12 episodes and 27 episodes and 19 episodes and 23 episodes (2×) and 20 episodes and 21 episodes and 14 episodes and 17 episodes and 13 episodes
Wakefulness Mean of a Single Episode [6, 9]: 12.83 min and 5.92 min and 4.03 min and 3.66 min and 3.05 min and 4.00 min and 3.79 min and 2.69 min and 5.5 min and 5.71 min and 6.02 min
Wakefulness Number (episodes) [6, 9]: 9 episodes and 12 episodes and 20 episodes and 19 episodes and 24 episodes and 17 episodes and 22 episodes and 23 episodes and 15 episodes (2×) and 11 episodes
